Assay results reported in the NIST ThermoML archive (doi:10.1021/je0604277).
± gives the expanded uncertainty stated by the source. Values belong to the compound of their own block, whether it stands above or below them.

What was measured:
[1] = 298.15 K; 101 kPa; Liquid mixture 1; rotated drop method
[2] = for viscosity: 101.33 kPa, Liquid, rotational viscometer; for surface tension liquid-gas: Pendant drop shape

SMILES: CCCCn1cc[n+](C)c1.F[P-](F)(F)(F)(F)F [1-butyl-3-methylimidazolium hexafluorophosphate] + c1ccccc1
interfacial tension [1]: 2.209 ± 0.044 mN/m

SMILES: CCCCn1cc[n+](C)c1.F[P-](F)(F)(F)(F)F [1-butyl-3-methylimidazolium hexafluorophosphate]
viscosity ([2]; 288.15 K): 400.2 ± 16 mPa·s
viscosity ([2]; 293.15 K): 294 ± 12 mPa·s
viscosity ([2]; 296.15 K): 245.8 ± 10 mPa·s
surface tension liquid-gas ([2]; 298.15 K): 53.1 ± 2.5 mN/m
viscosity ([2]; 298.15 K): 217.9 ± 8.6 mPa·s
viscosity ([2]; 301.15 K): 182.7 ± 7.4 mPa·s
viscosity ([2]; 303.15 K): 162.9 ± 6.5 mPa·s
viscosity ([2]; 305.15 K): 145.1 ± 5.6 mPa·s
viscosity ([2]; 308.15 K): 123.2 ± 4.8 mPa·s
viscosity ([2]; 311.15 K): 104 ± 4.1 mPa·s
viscosity ([2]; 313.15 K): 95 ± 3.6 mPa·s

SMILES: CCCCn1cc[n+](C)c1.F[P-](F)(F)(F)(F)F [1-butyl-3-methylimidazolium hexafluorophosphate] + C=CCCCC
interfacial tension [1]: 10.42 ± 0.21 mN/m

SMILES: CCCCn1cc[n+](C)c1.F[P-](F)(F)(F)(F)F [1-butyl-3-methylimidazolium hexafluorophosphate] + C1CCCCC1
interfacial tension [1]: 13.15 ± 0.26 mN/m

SMILES: CCCCn1cc[n+](C)c1.F[P-](F)(F)(F)(F)F [1-butyl-3-methylimidazolium hexafluorophosphate] + CCCCO
interfacial tension [1]: 4.706 ± 0.094 mN/m

SMILES: CCCCn1cc[n+](C)c1.F[P-](F)(F)(F)(F)F [1-butyl-3-methylimidazolium hexafluorophosphate] + CCC(=O)O
interfacial tension [1]: 3.292 ± 0.066 mN/m

SMILES: CC(C)=Cn1cc[n+](C)c1.F[B-](F)(F)F [1-isobutenyl-3-methylimidazolium tetrafluoroborate]
viscosity ([2]; 288.15 K): 214.2 ± 8.2 mPa·s
viscosity ([2]; 293.15 K): 158.7 ± 6.5 mPa·s
viscosity ([2]; 296.15 K): 133.4 ± 5.4 mPa·s
surface tension liquid-gas ([2]; 298.15 K): 51.8 ± 2.2 mN/m
viscosity ([2]; 298.15 K): 118.5 ± 4.6 mPa·s
viscosity ([2]; 301.15 K): 100.4 ± 4 mPa·s
viscosity ([2]; 303.15 K): 88.9 ± 3.5 mPa·s
viscosity ([2]; 305.15 K): 79.8 ± 3.1 mPa·s
viscosity ([2]; 308.15 K): 68 ± 2.6 mPa·s
viscosity ([2]; 311.15 K): 58.6 ± 2.2 mPa·s
viscosity ([2]; 313.15 K): 53.4 ± 2 mPa·s

SMILES: CCCCn1cc[n+](C)c1.F[P-](F)(F)(F)(F)F [1-butyl-3-methylimidazolium hexafluorophosphate] + CCCCC
interfacial tension [1]: 13.65 ± 0.27 mN/m

SMILES: CCCCn1cc[n+](C)c1.F[P-](F)(F)(F)(F)F [1-butyl-3-methylimidazolium hexafluorophosphate] + CCOC(C)=O
interfacial tension [1]: 11.69 ± 0.23 mN/m

SMILES: CCCCn1cc[n+](C)c1.F[P-](F)(F)(F)(F)F [1-butyl-3-methylimidazolium hexafluorophosphate] + CCCCCO
interfacial tension [1]: 5.325 ± 0.11 mN/m

SMILES: CCCCn1cc[n+](C)c1.F[P-](F)(F)(F)(F)F [1-butyl-3-methylimidazolium hexafluorophosphate] + CCCCCCO
interfacial tension [1]: 5.556 ± 0.11 mN/m

interfacial tension [1]: 1.793 ± 0.036 mN/m
SMILES: C=Cc1ccccc1 [styrene] + CCCCn1cc[n+](C)c1.F[P-](F)(F)(F)(F)F

interfacial tension [1]: 8.788 ± 0.17 mN/m
SMILES: CCCCCCCCCCCCO [dodecan-1-ol] + CCCCn1cc[n+](C)c1.F[P-](F)(F)(F)(F)F

SMILES: CCCCn1cc[n+](C)c1.F[P-](F)(F)(F)(F)F [1-butyl-3-methylimidazolium hexafluorophosphate] + CCCCCCCCCCO
interfacial tension [1]: 7.516 ± 0.15 mN/m

SMILES: CCCCn1cc[n+](C)c1.F[P-](F)(F)(F)(F)F [1-butyl-3-methylimidazolium hexafluorophosphate] + CCCCCCCO
interfacial tension [1]: 6.41 ± 0.13 mN/m

SMILES: CCCCn1cc[n+](C)c1.F[P-](F)(F)(F)(F)F [1-butyl-3-methylimidazolium hexafluorophosphate] + CCCCCCCCO
interfacial tension [1]: 7.385 ± 0.15 mN/m

SMILES: CCCCn1cc[n+](C)c1.F[P-](F)(F)(F)(F)F [1-butyl-3-methylimidazolium hexafluorophosphate] + CCc1ccccc1
interfacial tension [1]: 3.995 ± 0.08 mN/m

SMILES: CCCCn1cc[n+](C)c1.F[P-](F)(F)(F)(F)F [1-butyl-3-methylimidazolium hexafluorophosphate] + O
interfacial tension [1]: 10.06 ± 0.2 mN/m

SMILES: CCCCn1cc[n+](C)c1.F[P-](F)(F)(F)(F)F [1-butyl-3-methylimidazolium hexafluorophosphate] + CCO
interfacial tension [1]: 1.222 ± 0.024 mN/m

SMILES: CCCCn1cc[n+](C)c1.F[P-](F)(F)(F)(F)F [1-butyl-3-methylimidazolium hexafluorophosphate] + CCCCCCCC
interfacial tension [1]: 14.29 ± 0.28 mN/m

SMILES: CCCCn1cc[n+](C)c1.F[P-](F)(F)(F)(F)F [1-butyl-3-methylimidazolium hexafluorophosphate] + CCCCOC(C)=O
interfacial tension [1]: 0.4344 ± 0.0087 mN/m

SMILES: CCCCn1cc[n+](C)c1.F[P-](F)(F)(F)(F)F [1-butyl-3-methylimidazolium hexafluorophosphate] + Cc1ccccc1
interfacial tension [1]: 3 ± 0.06 mN/m

SMILES: CCCCn1cc[n+](C)c1.F[P-](F)(F)(F)(F)F [1-butyl-3-methylimidazolium hexafluorophosphate] + CCCCCC
interfacial tension [1]: 13.39 ± 0.27 mN/m
